Results taken from PubChem BioAssay (NCI).
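These data come from cells grown in 96-well plates and exposed to compound for 48 hours at five concentrations. Definition used: TGI = concentration required for complete inhibition of growth.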

Legend:
Test in all cases: NCI tumour cell line growth inhibition, 48 h
[1] = test system: 786-0 renal
[2] = test system: A498 renal
[3] = test system: A549 NSCLC
[4] = test system: ACHN renal
[5] = test system: CCRF-CEM leukemia
[6] = test system: COLO 205 colon
[7] = test system: DLD-1 colon
[8] = test system: DMS 114 small cell lung
[9] = test system: DMS 273 small cell lung
[10] = test system: EKVX NSCLC
[11] = test system: HCT-116 colon
[12] = test system: HCT-15 colon
[13] = test system: HL-60(TB) leukemia
[14] = test system: HOP-18 NSCLC
[15] = test system: HOP-62 NSCLC
[16] = test system: HT29 colon
[17] = test system: IGROV1 ovarian
[18] = test system: K-562 leukemia
[19] = test system: KM12 colon
[20] = test system: LOX IMVI melanoma
[21] = test system: LXFL 529 NSCLC
[22] = test system: M14 melanoma
[23] = test system: M19-MEL melanoma
[24] = test system: MOLT-4 leukemia
[25] = test system: NCI-H226 lung
[26] = test system: NCI-H23 lung
[27] = test system: NCI-H460 lung
[28] = test system: NCI-H522 lung
[29] = test system: OVCAR-4 ovarian
[30] = test system: OVCAR-8 ovarian
[31] = test system: RPMI-8226 leukemia
[32] = test system: RXF 393 renal
[33] = test system: SF-268 CNS
[34] = test system: SF-295 CNS
[35] = test system: SF-539 CNS
[36] = test system: SK-MEL-28 melanoma
[37] = test system: SK-MEL-5 melanoma
[38] = test system: SN12C renal
[39] = test system: SNB-19 CNS
[40] = test system: SNB-75 CNS
[41] = test system: SNB-78 CNS
[42] = test system: SR leukemia
[43] = test system: SW-620 colon
[44] = test system: U251 CNS
[45] = test system: UACC-257 melanoma
[46] = test system: UACC-62 melanoma
[47] = test system: CAKI-1 renal
[48] = test system: HCC-2998 colon
[49] = test system: HOP-92 NSCLC
[50] = test system: KM20L2 colon
[51] = test system: MALME-3M melanoma
[52] = test system: OVCAR-3 ovarian
[53] = test system: OVCAR-5 ovarian
[54] = test system: SK-MEL-2 melanoma
[55] = test system: SK-OV-3 ovarian
[56] = test system: TK-10 renal
[57] = test system: UO-31 renal
[58] = test system: XF 498 CNS

Measured: TGI

CC1(C)S[C@H](c2ccccc2C(=O)O)N[C@@H]1CC(=O)O
not listed: [47] | [48] | [49] | [50] | [51] | [52] | [53] | [54] | [55] | [56] | [57] | [58]
> 100 µM: all other assays above

COC1CC(Br)(C#N)C1 (configuration not stated)
not listed: [2] | [4] | [5] | [9] | [20] | [21] | [25] | [27] | [28] | [38] | [39] | [40] | [43] | [45] | [58]
> 100 µM: all other assays above

COc1ccccc1/C=C1\C(=O)N(C(=O)c2ccc(NC(C)=O)cc2)N=C1C
not listed: [2] | [14] | [17] | [21] | [22] | [32] | [46] | [49] | [50] | [55]
> 100 µM: all other assays above
